In brackets after ≈: the same amount, converted by molar mass. Where two headings read alike, the source gives them in different places.
How the values were obtained:
Assay in all cases: Broth microdilution MIC
E. coli ATCC 25922 = format: cell-based, Escherichia coli; conditions: for Minimal Inhibitory Concentration: E. coli ATCC 25922; for MIC: Escherichia coli, ATCC25922, E. coli ATCC 25922, read-out: Minimal Inhibitory Concentration
Experimental: (§1) The process for preparing susceptibility test medium are the following steps: • a. Preparing Mueller Hinton Broth II medium by adding 22 grams powdered media to 1.0 liter distilled water; • b. Autoclaving (121° C., 15 psi, 15 minutes) and cooling the medium; • c. Adding Oxyrase® up to about 10% final volume and keeping at 35-37° C. in an incubator for 30 minutes; • d. Adding about 50 μL to each well of a 96 well microtiter plate; • e. Weighing drug and adding broth to drug to bring up to about (standard 128 μg/ml); • f. Adding 50 μL of the drug to the first column of the titer plate; • g. Diluting by two-fold serial diluting across or down the plate. • h. Preparing a Prompt™ inoculum at 10^8 CFU/ml; • i. Diluting inoculum 1:100 in the broth at […] in 9.9 ml (1:100) is 10^6 colony forming units (CFU) forming the adjusted inoculum; • j. Adding 50 μL of the adjusted inoculum to the wells of the microtiter plate; • k. Incubating the plates at 35-37° C. for 18-22 hours; and • l. Reading, with the unaided eye, the MIC.
(§2) The in vitro activities of tigecycline and control antibiotics were determined by the broth microdilution method as recommended by the NCCLS. (National Committee for Clinical Laboratory Standards, 2003. Methods for Dilution Antimicrobial Susceptibility Tests for Bacteria That Grow Aerobically; Approved Standards: M7-A6, Sixth ed, vol. 23., National Committee for Clinical Laboratory Standards Wayne, Pa.) was used for the standard procedures. MBH with 5% lysed horse blood was used for testing S. pneumoniae and Haemophilus Test Medium was used for testing H. influenzae. Oxyrase® (Oxyrase Inc, Mansfield, Ohio) was used according to the manufacturer's instructions by adding 1 ml of Oxyrase® to 50 ml of media. Media age studies were performed by preparing MHB in multiple flasks, then storing the media under various conditions. MICs were usually performed in duplicate on each day of testing. Storage under anaerobic conditions was conducted in an anaerobic chamber (MACS MG 1000, Don Whitley Scientific LTD). The pH of the media was determined by pH meter (Corning 430). A comparison of the in vitro activity of tigecycline by agar and broth dilution methodolgies with and without Oxyrase® against clinical isolates is shown in Table 1.

S. aureus ATCC 25923 = format: cell-based, Staphylococcus aureus; conditions: for Minimal Inhibitory Concentration: S. aureus ATCC 25923; for MIC: Staphylococcus aureus, ATCC25923, S. aureus ATCC 25923, read-out: Minimal Inhibitory Concentration
Experimental: as §1, §2

E. faecalis ATCC 29212 = format: cell-based, Enterococcus faecalis; conditions: for Minimal Inhibitory Concentration: E. faecalis ATCC 29212; for MIC: Enterococcus faecalis, ATCC29212, E. faecalis ATCC 29212, read-out: Minimal Inhibitory Concentration
Experimental: as §1, §2

P. aeruginosa ATCC 27853 = format: cell-based, Pseudomonas aeruginosa; conditions: for Minimal Inhibitory Concentration: P. aeruginosa ATCC 27853; for MIC: Pseudomonas aeruginosa, ATCC27853, P. aeruginosa ATCC 27853, read-out: Minimal Inhibitory Concentration
Experimental: as §1, §2

S. aureus ATCC 29213 = format: cell-based, Staphylococcus aureus; conditions: Staphylococcus aureus, ATCC29213, S. aureus ATCC 29213, read-out: Minimal Inhibitory Concentration
Experimental: as §1, §2

[1] = Mueller Hinton Broth II (Fresh)
[2] = Mueller Hinton Broth II (MHB II)

Row | SMILES | Minimal Inhibitory Concentration (E. coli ATCC 25922; 2% Oxyrase) | Minimal Inhibitory Concentration (E. coli ATCC 25922; No Oxyrase) | Minimal Inhibitory Concentration (S. aureus ATCC 25923; 2% Oxyrase) | Minimal Inhibitory Concentration (S. aureus ATCC 25923; No Oxyrase) | Minimal Inhibitory Concentration (E. faecalis ATCC 29212; 2% Oxyrase) | Minimal Inhibitory Concentration (E. faecalis ATCC 29212; No Oxyrase) | Minimal Inhibitory Concentration (P. aeruginosa ATCC 27853; 2% Oxyrase) | Minimal Inhibitory Concentration (P. aeruginosa ATCC 27853; No Oxyrase) | MIC (E. coli ATCC 25922; MHB II + 0.05% Catalase) | MIC (E. coli ATCC 25922; MHB II + 0.05% L-ascorbic Acid) | MIC (E. coli ATCC 25922; MHB II + 0.05% L-cysteine) | MIC (E. coli ATCC 25922; MHB II + 0.05% Sodium Pyruvate) | MIC (E. coli ATCC 25922; MHB II + 0.05% Thioglycolate) | MIC (E. coli ATCC 25922; MHB II + 2% Oxyrase) | MIC (E. coli ATCC 25922; [1]) | MIC (E. coli ATCC 25922; [2]) | MIC (S. aureus ATCC 25923; MHB II + 0.05% Sodium Pyruvate) | MIC (S. aureus ATCC 29213; MHB II + 0.05% Catalase) | MIC (S. aureus ATCC 29213; MHB II + 0.05% L-ascorbic Acid) | MIC (S. aureus ATCC 29213; MHB II + 0.05% L-cysteine) | further results
1 | CN(C)CC(=O)Nc1ccc2c(c1O)C(=O)C1=C(O)C3(O)C(=O)C(C(N)=O)=C(O)C(N(C)C)C3CC1C2 (stereo not shown) [DMG-DMDOT, N,N-dimethylglycylamido 9 amino-6-demethyl-6-deoxytetracycline] | 0.12 µg/mL | 0.12 µg/mL | 0.12 µg/mL | 0.25 µg/mL | 0.06 µg/mL | 0.06 µg/mL | 8 µg/mL | 16 µg/mL | – | – | – | – | – | – | – | – | – | – | – | – | –
2 | CN(C)CC(=O)Nc1cc(N(C)C)c2c(c1O)C(=O)C1=C(O)C3(O)C(=O)C(C(N)=O)=C(O)C(N(C)C)C3CC1C2 (stereo not shown) [DMG-MINO, N,N-dimethylglycylamido 9-aminominocycline] | 0.06 µg/mL | 0.25 µg/mL | 0.12 µg/mL | 0.50 µg/mL | 0.03 µg/mL | 0.25 µg/mL | 16 µg/mL | 16 µg/mL | – | – | – | – | – | – | – | – | – | – | – | – | –
3 | CN(C)c1ccc(O)c2c1C[C@H]1C[C@H]3[C@H](N(C)C)C(O)=C(C(N)=O)C(=O)[C@@]3(O)C(O)=C1C2=O [Minocycline] | – | – | – | – | – | – | – | – | 1 µg/mL | 4 µg/mL | 2 µg/mL | 0.5 µg/mL | 1 µg/mL | 0.5 µg/mL | 0.5 to 1 µg/mL (≈ 1.09 to 2.19 µM) | 0.5 to 1 µg/mL (≈ 1.09 to 2.19 µM) | 0.25 µg/mL | 0.5 µg/mL | 1 µg/mL | 0.25 µg/mL | MIC (E. coli ATCC 25922; 2% Oxyrase): 0.5 µg/mL (≈ 1.09 µM); MIC (E. coli ATCC 25922; No Oxyrase): 1 µg/mL (≈ 2.19 µM); MIC (S. aureus ATCC 25923; 2% Oxyrase): 0.12 µg/mL (≈ 0.262 µM); MIC (S. aureus ATCC 25923; No Oxyrase): 0.25 µg/mL (≈ 0.546 µM); MIC (S. aureus ATCC 29213; MHB II + 0.05% Thioglycolate): 0.25 µg/mL; MIC (S. aureus ATCC 29213; MHB II + 2% Oxyrase): 0.12 to 0.25 µg/mL; MIC (S. aureus ATCC 29213; [1]): 0.12 to 0.5 µg/mL (≈ 0.262 to 1.09 µM); MIC (S. aureus ATCC 29213; [2]): 0.25 to 0.5 µg/mL (≈ 0.546 to 1.09 µM); MIC (E. faecalis ATCC 29212; 2% Oxyrase): 2 µg/mL (≈ 4.37 µM); MIC (E. faecalis ATCC 29212; MHB II + 0.05% Catalase): 4 µg/mL; MIC (E. faecalis ATCC 29212; MHB II + 0.05% L-ascorbic Acid): 4 µg/mL; MIC (E. faecalis ATCC 29212; MHB II + 0.05% L-cysteine): 4 µg/mL; MIC (E. faecalis ATCC 29212; MHB II + 0.05% Sodium Pyruvate): 2 µg/mL; MIC (E. faecalis ATCC 29212; MHB II + 0.05% Thioglycolate): 8 µg/mL; MIC (E. faecalis ATCC 29212; MHB II + 2% Oxyrase): 2 to 4 µg/mL; MIC (E. faecalis ATCC 29212; [1]): 4 µg/mL (≈ 8.74 µM); MIC (E. faecalis ATCC 29212; [2]): 4 to 8 µg/mL (≈ 8.74 to 17.5 µM); MIC (E. faecalis ATCC 29212; No Oxyrase): 4 µg/mL (≈ 8.74 µM); MIC (P. aeruginosa ATCC 27853; 2% Oxyrase): 16 µg/mL (≈ 35 µM); MIC (P. aeruginosa ATCC 27853; No Oxyrase): > 16 µg/mL
4 | CN(C)[C@@H]1C(O)=C(C(N)=O)C(=O)[C@@]2(O)C(O)=C3C(=O)c4c(O)cccc4[C@@](C)(O)[C@H]3C[C@@H]12 [Tetracycline] | – | – | – | – | – | – | – | – | 4 µg/mL | > 4 µg/mL | 4 µg/mL | 2 µg/mL | 4 µg/mL | 1 µg/mL | 1 to 2 µg/mL (≈ 2.25 to 4.5 µM) | 1 to 2 µg/mL (≈ 2.25 to 4.5 µM) | 1 µg/mL | 1 µg/mL | 2 µg/mL | 1 µg/mL | MIC (S. aureus ATCC 29213; MHB II + 0.05% Thioglycolate): 1 µg/mL; MIC (S. aureus ATCC 29213; MHB II + 2% Oxyrase): 0.5 to 1 µg/mL; MIC (S. aureus ATCC 29213; [1]): 1 to 2 µg/mL (≈ 2.25 to 4.5 µM); MIC (S. aureus ATCC 29213; [2]): 0.5 to 1 µg/mL (≈ 1.13 to 2.25 µM); MIC (E. faecalis ATCC 29212; MHB II + 0.05% Catalase): 16 µg/mL; MIC (E. faecalis ATCC 29212; MHB II + 0.05% L-ascorbic Acid): > 4 µg/mL; MIC (E. faecalis ATCC 29212; MHB II + 0.05% L-cysteine): > 4 µg/mL; MIC (E. faecalis ATCC 29212; MHB II + 0.05% Sodium Pyruvate): 16 µg/mL; MIC (E. faecalis ATCC 29212; MHB II + 0.05% Thioglycolate): > 16 µg/mL; MIC (E. faecalis ATCC 29212; [1]): > 4 µg/mL

— patent US20050130252A1, “Stabilized susceptibility tests of aerobic pathogens” (Wyeth Holdings Corporation, priority 2003, published 2005)
